Data on one molecule can be found in patent US20260376293A1, “METHODS FOR STUDYING GPR158 PHARMACOLOGY AND IDENTIFICATION OF ITS LIGANDS” (UNIVERSITY OF FLORIDA RESEARCH FOUNDATION, INCORPORATED, priority 2022, published 2026).

In this test the target is T1, GPR158 E271A mutant (Homo sapiens, UniProt Q5T848, E271A).
T1 construct: glycine site in Cache domain
T1 sequence (Q5T848 24-1215 E271A): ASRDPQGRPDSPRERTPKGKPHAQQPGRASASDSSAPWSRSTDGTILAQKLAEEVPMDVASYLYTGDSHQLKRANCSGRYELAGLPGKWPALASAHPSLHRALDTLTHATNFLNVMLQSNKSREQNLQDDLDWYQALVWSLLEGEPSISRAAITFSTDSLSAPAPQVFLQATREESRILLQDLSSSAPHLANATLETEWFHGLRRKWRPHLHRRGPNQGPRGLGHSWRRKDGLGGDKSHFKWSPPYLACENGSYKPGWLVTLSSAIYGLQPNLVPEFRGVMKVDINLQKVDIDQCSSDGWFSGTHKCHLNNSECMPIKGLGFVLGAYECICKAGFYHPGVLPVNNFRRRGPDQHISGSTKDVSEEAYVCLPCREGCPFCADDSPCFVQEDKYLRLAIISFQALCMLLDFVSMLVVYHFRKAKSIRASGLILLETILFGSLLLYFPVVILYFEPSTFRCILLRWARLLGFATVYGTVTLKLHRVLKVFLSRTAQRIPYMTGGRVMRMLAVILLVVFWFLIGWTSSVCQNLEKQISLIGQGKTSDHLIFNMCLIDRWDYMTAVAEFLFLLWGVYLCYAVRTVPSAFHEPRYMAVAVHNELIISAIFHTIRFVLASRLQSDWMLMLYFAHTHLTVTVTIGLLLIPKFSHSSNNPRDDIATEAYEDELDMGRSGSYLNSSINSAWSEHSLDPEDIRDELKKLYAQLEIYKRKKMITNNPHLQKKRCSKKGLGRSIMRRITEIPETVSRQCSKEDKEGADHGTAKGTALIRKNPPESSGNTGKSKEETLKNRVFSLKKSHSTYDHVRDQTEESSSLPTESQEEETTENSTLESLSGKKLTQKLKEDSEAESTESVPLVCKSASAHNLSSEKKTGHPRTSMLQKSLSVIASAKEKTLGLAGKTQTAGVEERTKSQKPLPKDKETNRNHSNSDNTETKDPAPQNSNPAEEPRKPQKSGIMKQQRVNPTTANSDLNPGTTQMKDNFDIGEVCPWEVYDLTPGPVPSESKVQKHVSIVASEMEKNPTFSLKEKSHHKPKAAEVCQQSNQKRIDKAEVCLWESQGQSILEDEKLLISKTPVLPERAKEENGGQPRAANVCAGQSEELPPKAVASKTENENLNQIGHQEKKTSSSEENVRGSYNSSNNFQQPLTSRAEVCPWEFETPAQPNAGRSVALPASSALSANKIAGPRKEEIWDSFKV
Description: Radioligand binding assay on GPR158 mutant E271A. The text has this:
FIGS. 11A-11G. Probing Cache domain of GPR158 as a ligand binding site A) Computational docking of glycine into putative ligand binding pocket on GPR158 Cache domain. Glycine and directly interacting residues are shown as sticks. Hydrogen bonds and van der Waals interactions are shown as dotted lines. B) Diagram showing interactions in the docked model of glycine against GPR158 Cache domain. Hydrogen bonds are shown as dashed lines, van der Waals interactions are shown as intersecting semicircles, and the secondary structural context of Ser266 and Tyr269 is shown as an arc. Dagger indicates a residue implicated in glycine binding in 11A. C) Radioligand binding assay of ^3H-glycine in cells expressing GPR158 mutants. Data shown mean±s.e.m. of 3 independent experiments, *p<0.05, ns=p>0.05 one-way ANOVA. D) Functional evaluation of GPR158 mutants in GAP BRET assay. Error bars are mean±s.e.m. of 3 independent experiments in triplicate. *p<0.05, **p<0.01, ***p<0.001, ****p<0.0001, ns=p>0.05, two-way ANOVA Columns with no fill (Ctrl), columns with angled-line fill (Glycine) E) Quantification of glycine inhibitory effect on kGAP normalized to the effect seen with WT receptor. […]
Whole cell binding was performed using cDNA of GPR158-venus or each GPR158-venus mutant or empty pcDNA3.1+ for ctrl cells. […] Finally radioactivity was measured using the liquid scintillation analyzer Tri-Carb 4910 TR.

Regarding `NCC(=O)O` [^3H-glycine, [^3H]-glycine], the “[^3H]-glycine binding” value is recorded as “near complete loss”.
